Our source for the TGI values is PubChem BioAssay (NCI).

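Interpolation was linear, between the two tested concentrations surrounding the appropriate level; five concentrations were tested over 48 hours in 96-well plates. TGI: concentration producing complete growth inhibition.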

Some test systems named below: A498 renal; OVCAR-8 ovarian; A549 NSCLC; NCI-H522 lung; NCI/ADR-RES ovarian; SNB-75 CNS; SNB-19 CNS; SF-295 CNS; SK-MEL-2 melanoma; SN12C renal.
What all share (test): inhibition of tumour cell growth, NCI panel, 48 h

Regarding `COC(=O)C#CC1(O)C=CC(=O)C=C1`, the TGI with A498 renal was more than 100 µM; in the test with OVCAR-8 ovarian, 15.4 µM; with A549 NSCLC, more than 48.1 µM; in the test on NCI-H522 lung, 0.552 µM; with NCI/ADR-RES ovarian, more than 100 µM; in the test with SNB-75 CNS, 18.1 µM. Also, the TGI in the test on SNB-19 CNS is 17.9 µM; in the test with SF-295 CNS, more than 41.8 µM; in the test on SK-MEL-2 melanoma it was 7.64 µM.

As for `Cc1cccc2c(=O)c3cccc(CC(=O)O)c3oc12`, the TGI with A498 renal, in the test with OVCAR-8 ovarian, with A549 NSCLC, in the test with NCI-H522 lung, in the test with NCI/ADR-RES ovarian and with SN12C renal was more than 100 µM in each case. In addition, the TGI in the test on SNB-19 CNS, with SF-295 CNS and in the test with SK-MEL-2 melanoma was more than 100 µM in each case.

As for `O=[N+]([O-])c1cccc(-c2ccc([C@H]3CC(c4ccc(Cl)cc4)=NN3)o2)c1`, the TGI is 88.2 µM in the test with A498 renal; 27.4 µM with OVCAR-8 ovarian; more than 100 µM with A549 NSCLC; 59.1 µM with NCI-H522 lung; 76.3 µM in the test on NCI/ADR-RES ovarian; 53.4 µM with SN12C renal. For the same compound, the TGI with SNB-75 CNS was determined as 48.4 µM; with SNB-19 CNS it was 89.7 µM; with SF-295 CNS, 88.5 µM.

In the case of `C=C1C(=O)O[C@H]2[C@@H]3O[C@@](C)(CC/C=C(\C)CCC[C@@H]2C)[C@H](O)C[C@@H]13`, the TGI in the test on A498 renal is more than 100 µM; in the test with OVCAR-8 ovarian, 17.1 µM; in the test with A549 NSCLC it was 24.9 µM; in the test on NCI-H522 lung, 5.67 µM; with NCI/ADR-RES ovarian it was 7.62 µM; with SN12C renal, 8.15 µM. For the same compound, the TGI worked out at 30.7 µM in the test with SNB-75 CNS, 27.8 µM with SF-295 CNS and 27 µM in the test on SK-MEL-2 melanoma.

For the compound `CC(C)c1cc(C(C)C)c(S(=O)(=O)N/N=C2\CC3CCC2(C)C3(C)C)c(C(C)C)c1` (stereo not given), the TGI with A498 renal was 32.7 µM; in the test on OVCAR-8 ovarian it was more than 100 µM; with A549 NSCLC, more than 100 µM; in the test with NCI-H522 lung, 36.8 µM; in the test with NCI/ADR-RES ovarian, more than 100 µM; with SN12C renal it was 38.2 µM. Moreover, the TGI with SNB-19 CNS was more than 100 µM; in the test on SF-295 CNS, 63.9 µM; in the test with SK-MEL-2 melanoma it was more than 100 µM.

Take `CCc1c(N=[N+]=[N-])c2ccccc2oc1=O`: the TGI in the test with A498 renal, in the test with OVCAR-8 ovarian, in the test with A549 NSCLC, in the test with NCI-H522 lung, in the test with NCI/ADR-RES ovarian and with SN12C renal was more than 100 µM each time. Further, the TGI in the test with SNB-75 CNS and in the test with SF-295 CNS was more than 100 µM in each case.

For the compound `COc1ccc(C2OC2C(=O)C23CC4CC(CC(C4)C2)C3)cc1` (stereo not given), the TGI with A498 renal, in the test on OVCAR-8 ovarian, in the test on A549 NSCLC, in the test with NCI-H522 lung, with NCI/ADR-RES ovarian and with SN12C renal was more than 100 µM throughout. The TGI with SNB-19 CNS and in the test on SF-295 CNS was more than 100 µM throughout.

For the compound `C(#C[C@@]12CCC[C@@H]1NCO2)c1ccc2c(c1)OCO2`, the TGI in the test on A498 renal, with OVCAR-8 ovarian, in the test with A549 NSCLC, with NCI-H522 lung, with NCI/ADR-RES ovarian and in the test with SNB-75 CNS was more than 100 µM in each case. In addition, the TGI in the test with SNB-19 CNS, in the test with SF-295 CNS and with SK-MEL-2 melanoma was more than 100 µM throughout.

For the compound `COc1ccc(CCN2C(=O)C(=O)C(C(=O)c3ccccc3)C2c2ccccc2)cc1OC` (stereo not given), the TGI in the test with A498 renal, in the test with OVCAR-8 ovarian, in the test on A549 NSCLC, with NCI-H522 lung, in the test with NCI/ADR-RES ovarian and in the test on SN12C renal was more than 100 µM in each case. Moreover, the TGI in the test on SNB-19 CNS, in the test with SF-295 CNS and in the test on SK-MEL-2 melanoma was more than 100 µM each time.

As to `COc1cc(OC)cc(Oc2nc3ccc(C(F)(F)F)cc3nc2-c2ccccc2)c1`, the TGI with A498 renal, in the test with OVCAR-8 ovarian, in the test with A549 NSCLC, in the test with NCI-H522 lung, in the test on NCI/ADR-RES ovarian and in the test on SNB-75 CNS was more than 100 µM each time. Also, the TGI in the test with SF-295 CNS was more than 100 µM.

Turning to `O=C1C/C(=C\c2ccccc2)C(=O)c2ccccc2N1`, the TGI with A498 renal was found to be 35.4 µM; with OVCAR-8 ovarian, 39.1 µM; in the test with A549 NSCLC it was 56.9 µM; with NCI-H522 lung, 51.9 µM; in the test with NCI/ADR-RES ovarian, 54.7 µM; with SN12C renal, 34.8 µM. Moreover, the TGI in the test with SNB-19 CNS came out at 30.7 µM; in the test with SF-295 CNS it was 36.8 µM; in the test with SK-MEL-2 melanoma, 60.6 µM.

Turning to `COc1cc(N(CCC#N)CCC#N)ccc1/C(N=Nc1cccc([N+](=O)[O-])c1)=N\NC(=O)c1ccc(C)cc1`, the TGI in the test on A498 renal, in the test with OVCAR-8 ovarian, with A549 NSCLC, with NCI-H522 lung, in the test on NCI/ADR-RES ovarian and in the test with SN12C renal was more than 100 µM throughout. Further, the TGI in the test with SNB-19 CNS, with SF-295 CNS and with SK-MEL-2 melanoma was more than 100 µM each time.

For the compound `C/C(=N\NC(N)=O)C(CN1CCOCC1)C(c1ccccc1)c1c(O)c2ccccc2oc1=O` (stereo not given), the TGI was 91.8 µM in the test with A498 renal; more than 100 µM in the test on OVCAR-8 ovarian; more than 100 µM in the test on A549 NSCLC; more than 100 µM with NCI-H522 lung; more than 100 µM in the test with NCI/ADR-RES ovarian; more than 100 µM with SNB-75 CNS. Also, the TGI in the test with SNB-19 CNS and in the test on SK-MEL-2 melanoma was more than 100 µM throughout.

As for `COc1cccc(O)c1-c1cc(=O)c2c(O)c(OC)c(OC)c(OC)c2o1`, the TGI in the test on OVCAR-8 ovarian is more than 100 µM; in the test with A549 NSCLC it was more than 100 µM; with NCI-H522 lung, 87.9 µM; in the test with NCI/ADR-RES ovarian, 71.7 µM; in the test on SN12C renal it was 93.4 µM; in the test with SNB-75 CNS, 76.1 µM. Also, the TGI in the test on SNB-19 CNS was more than 100 µM; with SF-295 CNS it was 76.6 µM; in the test on SK-MEL-2 melanoma, 52.4 µM.

With `c1ccc2sc(C3(N4CCCCCC4)CCCCC3)cc2c1`, the TGI in the test with A498 renal is 36.8 µM; in the test on OVCAR-8 ovarian, more than 100 µM; with A549 NSCLC, more than 100 µM; in the test on NCI-H522 lung it was 36.4 µM; in the test on NCI/ADR-RES ovarian, 55.2 µM; with SN12C renal, 43.7 µM. Besides, the TGI in the test with SNB-75 CNS was 62.1 µM; in the test with SNB-19 CNS, 44.6 µM; in the test on SF-295 CNS, 59.1 µM.
